Assay results as given in article PMC6409085, “Three odorant-binding proteins are involved in the behavioral response of Sogatella furcifera to rice plant volatiles” (PeerJ, 2019).
Values joined by “and” are separate entries in the source; they are usually repeats but may differ in a detail not shown here. Equal values may be shown once.

Experiments:
[1] = biological target: SfurOBP1 (Sogatella furcifera, UniProt V5T8N5); test: biochemical; assay type: binding; conditions: for Fluorescence competitive binding assay, fluorescence intensity: OBP1, three replicate columns
Chain of SfurOBP1 (V5T8N5 entry or part of it): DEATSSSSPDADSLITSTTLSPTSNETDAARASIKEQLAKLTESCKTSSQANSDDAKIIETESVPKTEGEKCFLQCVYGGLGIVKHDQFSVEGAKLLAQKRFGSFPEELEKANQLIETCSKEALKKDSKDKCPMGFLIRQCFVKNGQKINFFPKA
Method in brief: (§1)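 K1-NPN came from titrating 2.0 µM protein (50 mM Tris-HCl, pH 7.4) with 1-NPN. Odorants at 2-20 µM then competed against 2.0 µM protein plus 2.0 µM 1-NPN for 2 min, with excitation at 337 nm and emission recorded over 390-490 nm. IC50 values were converted to Ki via Ki = IC50/(1 + [1-NPN]/K1-NPN).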

[2] = biological target: SfurOBP3 (Sogatella furcifera, UniProt V5T818); test: biochemical; assay type: binding; conditions: for Fluorescence competitive binding assay, fluorescence intensity: OBP3, three replicate columns
Chain of SfurOBP3 (V5T818 entry or part of it): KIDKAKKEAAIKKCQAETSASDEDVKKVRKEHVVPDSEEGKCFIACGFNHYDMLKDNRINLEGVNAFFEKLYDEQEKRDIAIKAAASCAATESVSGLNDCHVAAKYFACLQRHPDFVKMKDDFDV
Method in brief: as §1

[3] = biological target: SfurOBP11 (Sogatella furcifera, UniProt V5T6E3); test: biochemical; assay type: binding
Chain of SfurOBP11 (V5T6E3 entry or part of it): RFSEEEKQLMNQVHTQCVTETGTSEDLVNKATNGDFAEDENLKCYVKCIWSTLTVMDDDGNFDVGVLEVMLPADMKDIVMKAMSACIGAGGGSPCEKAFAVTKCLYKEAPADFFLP
Method in brief: as §1

[4] = biological target: SfurOBP2 (Sogatella furcifera, UniProt V5T759); test: biochemical; assay type: binding
Chain of SfurOBP2 (V5T759 entry or part of it): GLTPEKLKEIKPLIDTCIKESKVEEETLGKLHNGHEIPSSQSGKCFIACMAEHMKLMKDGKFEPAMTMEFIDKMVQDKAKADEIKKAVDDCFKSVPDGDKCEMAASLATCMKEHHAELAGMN
Method in brief: as §1

[5] = test system: S. furcifera adults; test: Y-tube olfactometer behavioral trials; assay type: in vivo, Sogatella furcifera; conditions: odorant 50 µL/L vs hexane
Method in brief: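 Single S. furcifera adults (2 days post-emergence, starved 0.5 h) chose between odorant (100 µL of 50 µL/L on filter paper) and hexane control in a glass Y-tube, charcoal-filtered humidified air 300 mL/min per arm, 25 ± 1 °C, 50% RH. Choice scored if insect passed half an arm and stayed >1 min within 10 min; 45 insects per compound, chi-squared test.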

CC(=O)c1ccccc1 [acetophenone]
Fluorescence competitive binding assay, fluorescence intensity ([1]; ligand concentration 2 (μM)): 5574 and 5550 and 5238 | Fluorescence competitive binding assay, fluorescence intensity ([1]; ligand concentration 4 (μM)): 4710 and 5782 and 5020 | Fluorescence competitive binding assay, fluorescence intensity ([1]; ligand concentration 6 (μM)): 5308 and 5201 and 5270 | Fluorescence competitive binding assay, fluorescence intensity ([1]; ligand concentration 8 (μM)): 4498 and 4902 and 5186 | Fluorescence competitive binding assay, fluorescence intensity ([1]; ligand concentration 10 (μM)): 4649 and 5445 and 5409 | Fluorescence competitive binding assay, fluorescence intensity ([1]; ligand concentration 12 (μM)): 5039 and 5542 and 4835 | Fluorescence competitive binding assay, fluorescence intensity ([1]; ligand concentration 14 (μM)): 5190 and 5205 and 6069 | Fluorescence competitive binding assay, fluorescence intensity ([1]; ligand concentration 16 (μM)): 4320 and 5267 and 4703 | Fluorescence competitive binding assay, fluorescence intensity ([1]; ligand concentration 18 (μM)): 5435 and 5537 and 6009 | Fluorescence competitive binding assay, fluorescence intensity ([1]; ligand concentration 20 (μM)): 6807 and 4924 and 6337 | IC50 ([1]; SfurOBP1, protein and 1-NPN both 2.0 µM, competitor 2-20 µM, read-out: IC50): > 20 µM | Fluorescence competitive binding assay, fluorescence intensity ([2]; ligand concentration 2): 34223 and 34200 and 33767 | Fluorescence competitive binding assay, fluorescence intensity ([2]; ligand concentration 4): 34565 and 34966 and 35111 | Fluorescence competitive binding assay, fluorescence intensity ([2]; ligand concentration 6): 33473 and 32986 and 33557 | Fluorescence competitive binding assay, fluorescence intensity ([2]; ligand concentration 8): 31804 and 31815 and 33904 | Fluorescence competitive binding assay, fluorescence intensity ([2]; ligand concentration 10): 31933 and 33856 and 32393 | Fluorescence competitive binding assay, fluorescence intensity ([2]; ligand concentration 12): 28357 and 30958 and 31303 | Fluorescence competitive binding assay, fluorescence intensity ([2]; ligand concentration 14): 30291 and 29441 and 31149 | Fluorescence competitive binding assay, fluorescence intensity ([2]; ligand concentration 16): 26096 and 27512 and 26789 | Fluorescence competitive binding assay, fluorescence intensity ([2]; ligand concentration 18): 36577 and 32045 and 32081 | Fluorescence competitive binding assay, fluorescence intensity ([2]; ligand concentration 20): 29304 and 29350 and 25941 | binding affinity to SfurOBP3 (in words) ([2]; SfurOBP3): high binding affinities | IC50 ([2]; SfurOBP3, protein and 1-NPN both 2.0 µM, competitor 2-20 µM, read-out: IC50): 17.4 µM | IC50 ([3]; SfurOBP11, protein and 1-NPN both 2.0 µM, competitor 2-20 µM, read-out: IC50): > 20 µM | Fluorescence intensity, fluorescence competitive binding assay, OBP11 ([3]; ligand concentration 2, replicate 1): 26535 | Fluorescence intensity, fluorescence competitive binding assay, OBP11 ([3]; ligand concentration 2, replicate 2): 26162 | Fluorescence intensity, fluorescence competitive binding assay, OBP11 ([3]; ligand concentration 2, replicate 3): 26541 | Fluorescence intensity, fluorescence competitive binding assay, OBP11 ([3]; ligand concentration 4, replicate 1): 25394 | Fluorescence intensity, fluorescence competitive binding assay, OBP11 ([3]; ligand concentration 4, replicate 2): 26325 | Fluorescence intensity, fluorescence competitive binding assay, OBP11 ([3]; ligand concentration 4, replicate 3): 27262 | Fluorescence intensity, fluorescence competitive binding assay, OBP11 ([3]; ligand concentration 6, replicate 1): 26264 | Fluorescence intensity, fluorescence competitive binding assay, OBP11 ([3]; ligand concentration 6, replicate 2): 26035 | Fluorescence intensity, fluorescence competitive binding assay, OBP11 ([3]; ligand concentration 6, replicate 3): 26502 | Fluorescence intensity, fluorescence competitive binding assay, OBP11 ([3]; ligand concentration 8, replicate 1): 25045 | Fluorescence intensity, fluorescence competitive binding assay, OBP11 ([3]; ligand concentration 8, replicate 2): 25714 | Fluorescence intensity, fluorescence competitive binding assay, OBP11 ([3]; ligand concentration 8, replicate 3): 24376 | Fluorescence intensity, fluorescence competitive binding assay, OBP11 ([3]; ligand concentration 10, replicate 1): 24885 | Fluorescence intensity, fluorescence competitive binding assay, OBP11 ([3]; ligand concentration 10, replicate 2): 24226 | Fluorescence intensity, fluorescence competitive binding assay, OBP11 ([3]; ligand concentration 10, replicate 3): 23566 | Fluorescence intensity, fluorescence competitive binding assay, OBP11 ([3]; ligand concentration 12, replicate 1): 21957 | Fluorescence intensity, fluorescence competitive binding assay, OBP11 ([3]; ligand concentration 12, replicate 2): 22135 | Fluorescence intensity, fluorescence competitive binding assay, OBP11 ([3]; ligand concentration 12, replicate 3): 20925 | Fluorescence intensity, fluorescence competitive binding assay, OBP11 ([3]; ligand concentration 14, replicate 1): 23062 | Fluorescence intensity, fluorescence competitive binding assay, OBP11 ([3]; ligand concentration 14, replicate 2): 21821 | Fluorescence intensity, fluorescence competitive binding assay, OBP11 ([3]; ligand concentration 14, replicate 3): 20452 | Fluorescence intensity, fluorescence competitive binding assay, OBP11 ([3]; ligand concentration 16, replicate 1): 19007 | Fluorescence intensity, fluorescence competitive binding assay, OBP11 ([3]; ligand concentration 16, replicate 2): 19354 | Fluorescence intensity, fluorescence competitive binding assay, OBP11 ([3]; ligand concentration 16, replicate 3): 17450 | Fluorescence intensity, fluorescence competitive binding assay, OBP11 ([3]; ligand concentration 18, replicate 1): 21957 | Fluorescence intensity, fluorescence competitive binding assay, OBP11 ([3]; ligand concentration 18, replicate 2): 23680 | Fluorescence intensity, fluorescence competitive binding assay, OBP11 ([3]; ligand concentration 18, replicate 3): 21455 | Fluorescence intensity, fluorescence competitive binding assay, OBP11 ([3]; ligand concentration 20, replicate 1): 23354 | Fluorescence intensity, fluorescence competitive binding assay, OBP11 ([3]; ligand concentration 20, replicate 2): 26458 | Fluorescence intensity, fluorescence competitive binding assay, OBP11 ([3]; ligand concentration 20, replicate 3): 24921 | IC50 ([4]; SfurOBP2, protein and 1-NPN both 2.0 µM, competitor 2-20 µM, read-out: IC50): > 20 µM | Fluorescence competitive binding assay, OBP2 (raw fluorescence reading) ([4]; ligand concentration 2 (unit not given), replicate column 1 of 3): 18213 | Fluorescence competitive binding assay, OBP2 (raw fluorescence reading) ([4]; ligand concentration 2 (unit not given), replicate column 2 of 3): 17695 | Fluorescence competitive binding assay, OBP2 (raw fluorescence reading) ([4]; ligand concentration 2 (unit not given), replicate column 3 of 3): 18887 | Fluorescence competitive binding assay, OBP2 (raw fluorescence reading) ([4]; ligand concentration 4 (unit not given), replicate column 1 of 3): 18465 | Fluorescence competitive binding assay, OBP2 (raw fluorescence reading) ([4]; ligand concentration 4 (unit not given), replicate column 2 of 3): 18805 | Fluorescence competitive binding assay, OBP2 (raw fluorescence reading) ([4]; ligand concentration 4 (unit not given), replicate column 3 of 3): 18729 | Fluorescence competitive binding assay, OBP2 (raw fluorescence reading) ([4]; ligand concentration 6 (unit not given), replicate column 1 of 3): 17576 | Fluorescence competitive binding assay, OBP2 (raw fluorescence reading) ([4]; ligand concentration 6 (unit not given), replicate column 2 of 3): 17836 | Fluorescence competitive binding assay, OBP2 (raw fluorescence reading) ([4]; ligand concentration 6 (unit not given), replicate column 3 of 3): 18066 | Fluorescence competitive binding assay, OBP2 (raw fluorescence reading) ([4]; ligand concentration 8 (unit not given), replicate column 1 of 3): 15752 | Fluorescence competitive binding assay, OBP2 (raw fluorescence reading) ([4]; ligand concentration 8 (unit not given), replicate column 2 of 3): 18865 | Fluorescence competitive binding assay, OBP2 (raw fluorescence reading) ([4]; ligand concentration 8 (unit not given), replicate column 3 of 3): 17007 | Fluorescence competitive binding assay, OBP2 (raw fluorescence reading) ([4]; ligand concentration 10 (unit not given), replicate column 1 of 3): 16925 | Fluorescence competitive binding assay, OBP2 (raw fluorescence reading) ([4]; ligand concentration 10 (unit not given), replicate column 2 of 3): 17786 | Fluorescence competitive binding assay, OBP2 (raw fluorescence reading) ([4]; ligand concentration 10 (unit not given), replicate column 3 of 3): 17356 | Fluorescence competitive binding assay, OBP2 (raw fluorescence reading) ([4]; ligand concentration 12 (unit not given), replicate column 1 of 3): 16049 | Fluorescence competitive binding assay, OBP2 (raw fluorescence reading) ([4]; ligand concentration 12 (unit not given), replicate column 2 of 3): 16437 | Fluorescence competitive binding assay, OBP2 (raw fluorescence reading) ([4]; ligand concentration 12 (unit not given), replicate column 3 of 3): 16824 | Fluorescence competitive binding assay, OBP2 (raw fluorescence reading) ([4]; ligand concentration 14 (unit not given), replicate column 1 of 3): 15270 | Fluorescence competitive binding assay, OBP2 (raw fluorescence reading) ([4]; ligand concentration 14 (unit not given), replicate column 2 of 3): 15647 | Fluorescence competitive binding assay, OBP2 (raw fluorescence reading) ([4]; ligand concentration 14 (unit not given), replicate column 3 of 3): 14905 | Fluorescence competitive binding assay, OBP2 (raw fluorescence reading) ([4]; ligand concentration 16 (unit not given), replicate column 1 of 3): 15319 | Fluorescence competitive binding assay, OBP2 (raw fluorescence reading) ([4]; ligand concentration 16 (unit not given), replicate column 2 of 3): 14300 | Fluorescence competitive binding assay, OBP2 (raw fluorescence reading) ([4]; ligand concentration 16 (unit not given), replicate column 3 of 3): 16123 | Fluorescence competitive binding assay, OBP2 (raw fluorescence reading) ([4]; ligand concentration 18 (unit not given), replicate column 1 of 3): 15075 | Fluorescence competitive binding assay, OBP2 (raw fluorescence reading) ([4]; ligand concentration 18 (unit not given), replicate column 2 of 3): 15152 | Fluorescence competitive binding assay, OBP2 (raw fluorescence reading) ([4]; ligand concentration 18 (unit not given), replicate column 3 of 3): 15228 | Fluorescence competitive binding assay, OBP2 (raw fluorescence reading) ([4]; ligand concentration 20 (unit not given), replicate column 1 of 3): 14131 | Fluorescence competitive binding assay, OBP2 (raw fluorescence reading) ([4]; ligand concentration 20 (unit not given), replicate column 2 of 3): 14026 | Fluorescence competitive binding assay, OBP2 (raw fluorescence reading) ([4]; ligand concentration 20 (unit not given), replicate column 3 of 3): 13920 | behavioral response of S. furcifera (in words) [5]: strongly attracted | number of insects choosing hexane arm ([5]; adults): 11 | number of insects choosing volatilies arm ([5]; adults): 20 | number of insects failed (no choice) ([5]; adults): 9
